Measured values published in publication PMC3973950, “Synthesis of 5-arylidine amino-1,3,4-thiadiazol-2-[(N-substituted benzyol)]sulphonamides endowed with potent antioxidants and anticancer activity induces growth inhibition in HEK293, BT474 and NCI-H226 cells” (Medicinal Chemistry Research, 2013).

Tested on: not listed separately
Experiment: In vitro cytotoxicity by MTT assay, HEK 293
Type: cell-based, human
Settings: human, HEK 293 cells, 0.005 μM, read-out: % cytotoxicity (100 − % cell survival) of HEK 293 cell line
Protocol: (§1) The cancer cell line cultures of HEK 293 ([…]), BT474 (breast cancer cell line) and NCI-H226 (lung cancer) were obtained from Pasteur Institute of India, Coonoor, India, and were cultured in RPMI-1640 and 10 % heat-[…] New born calf serum with antibiotics [penicillin ([…]), streptomycin (100 μg/mL) and amphotericin B (25 μg/mL)]. The cells were maintained at 37 °C in a humidified atmosphere with 5 % CO2 and were subcultured twice a week.
(§2) The monolayer cell culture (100 μL) was trypsinized, and the cell count was adjusted to […] using medium containing 10 % new born calf serum. To each well of the 96-well microtitre plate, the diluted cell suspension (approximately 10,000 cells) (0.1 mL) was added and kept for 24 h in incubator at 37 °C in 5 % CO2 atmosphere for cell monolayer formation. After 24 h, when a partial monolayer was formed at the bottom of the well, the supernatant was flicked off, the monolayer was washed once, and different drugs, i.e. synthesized compounds (100 μL), were added to the cells in microtitre plates. The plates were then incubated at 37 °C for 3 days in 5 % CO2 atmosphere, and microscopic examination was carried out and observations recorded every 24 h. After 72 h, the sample solution in the wells was flicked off; MTT dye ([…]) was added to each well; plates were gently shaken and incubated for 4 h at 37 °C in 5 % CO2 incubator. The supernatant was removed and propanol (50 μL) was added; the plates were gently shaken to solubilize the formed formazan. The absorbance was measured using a microplate reader at a wavelength of 490 nm (Edmondson et al., [1988]; Prasad et al., [2005]; Chiruvella et al., [2008]; Chang et al., [2007]).

SMILES	cytotoxicity at 72 h, 0.005 µM [%]
CC(=O)Nc1ccc(S(=O)(=O)Nc2nnc(S(=O)(=O)NC(=O)c3ccccc3)s2)cc1 [Compound 6a]	26.5

Same assay, conditions: human, HEK 293 cells, 0.015 μM, read-out: % cytotoxicity (100 − % cell survival) of HEK 293 cell line

SMILES	cytotoxicity at 72 h, 0.015 µM [%]
CC(=O)Nc1ccc(S(=O)(=O)Nc2nnc(S(=O)(=O)NC(=O)c3ccccc3)s2)cc1 [Compound 6a]	26.8

Same assay, conditions: human, HEK 293 cells, 0.045 μM, read-out: % cytotoxicity (100 − % cell survival) of HEK 293 cell line

SMILES	cytotoxicity at 72 h, 0.045 µM [%]
CC(=O)Nc1ccc(S(=O)(=O)Nc2nnc(S(=O)(=O)NC(=O)c3ccccc3)s2)cc1 [Compound 6a]	28.2

Same assay, conditions: human, HEK 293 cells, 0.13 μM, read-out: % cytotoxicity (100 − % cell survival) of HEK 293 cell line

SMILES	cytotoxicity at 72 h, 0.13 µM [%]
CC(=O)Nc1ccc(S(=O)(=O)Nc2nnc(S(=O)(=O)NC(=O)c3ccccc3)s2)cc1 [Compound 6a]	29.9

Same assay, conditions: human, HEK 293 cells, 0.41 μM, read-out: % cytotoxicity (100 − % cell survival) of HEK 293 cell line

SMILES	cytotoxicity at 72 h, 0.41 µM [%]
CC(=O)Nc1ccc(S(=O)(=O)Nc2nnc(S(=O)(=O)NC(=O)c3ccccc3)s2)cc1 [Compound 6a]	30.1

Same assay, conditions: human, HEK 293 cells, 1.23 μM, read-out: % cytotoxicity (100 − % cell survival) of HEK 293 cell line

SMILES	cytotoxicity at 72 h, 1.23 µM [%]
CC(=O)Nc1ccc(S(=O)(=O)Nc2nnc(S(=O)(=O)NC(=O)c3ccccc3)s2)cc1 [Compound 6a]	32.2

Same assay, conditions: human, HEK 293 cells, 3.7 μM, read-out: % cytotoxicity (100 − % cell survival) of HEK 293 cell line

SMILES	cytotoxicity at 72 h, 3.7 µM [%]
CC(=O)Nc1ccc(S(=O)(=O)Nc2nnc(S(=O)(=O)NC(=O)c3ccccc3)s2)cc1 [Compound 6a]	33.6

Same assay, conditions: human, HEK 293 cells, 11.11 μM, read-out: % cytotoxicity (100 − % cell survival) of HEK 293 cell line

SMILES	cytotoxicity at 72 h, 11.11 µM [%]
CC(=O)Nc1ccc(S(=O)(=O)Nc2nnc(S(=O)(=O)NC(=O)c3ccccc3)s2)cc1 [Compound 6a]	35

Same assay, conditions: human, HEK 293 cells, 33.33 μM, read-out: % cytotoxicity (100 − % cell survival) of HEK 293 cell line

SMILES	cytotoxicity at 72 h, 33.33 µM [%]
CC(=O)Nc1ccc(S(=O)(=O)Nc2nnc(S(=O)(=O)NC(=O)c3ccccc3)s2)cc1 [Compound 6a]	35.2

Same assay, conditions: human, HEK 293 cells, 100 μM, read-out: % cytotoxicity (100 − % cell survival) of HEK 293 cell line

SMILES	cytotoxicity at 72 h, 100 µM [%]
CC(=O)Nc1ccc(S(=O)(=O)Nc2nnc(S(=O)(=O)NC(=O)c3ccccc3)s2)cc1 [Compound 6a]	35.4

Tested on: BT474 (breast cancer cell line)
Experiment: In vitro cytotoxicity by MTT assay, BT474
Type: cell-based
Settings: Homo sapiens, BT-474, 0.005 μM, 72 h, read-out: % cytotoxicity (100 − % cell survival) of BT474 cell line
Protocol: as §1, §2

SMILES	cytotoxicity at 0.005 µM [%]
CC(=O)Nc1ccc(S(=O)(=O)Nc2nnc(S(=O)(=O)NC(=O)c3ccccc3)s2)cc1 [Compound 6a]	26

Same assay, conditions: Homo sapiens, BT-474, 0.015 μM, 72 h, read-out: % cytotoxicity (100 − % cell survival) of BT474 cell line

SMILES	cytotoxicity at 0.015 µM [%]
CC(=O)Nc1ccc(S(=O)(=O)Nc2nnc(S(=O)(=O)NC(=O)c3ccccc3)s2)cc1 [Compound 6a]	27.2

Same assay, conditions: Homo sapiens, BT-474, 0.045 μM, 72 h, read-out: % cytotoxicity (100 − % cell survival) of BT474 cell line

SMILES	cytotoxicity at 0.045 µM [%]
CC(=O)Nc1ccc(S(=O)(=O)Nc2nnc(S(=O)(=O)NC(=O)c3ccccc3)s2)cc1 [Compound 6a]	28

Same assay, conditions: Homo sapiens, BT-474, 0.13 μM, 72 h, read-out: % cytotoxicity (100 − % cell survival) of BT474 cell line

SMILES	cytotoxicity at 0.13 µM [%]
CC(=O)Nc1ccc(S(=O)(=O)Nc2nnc(S(=O)(=O)NC(=O)c3ccccc3)s2)cc1 [Compound 6a]	28.6

Same assay, conditions: Homo sapiens, BT-474, 0.41 μM, 72 h, read-out: % cytotoxicity (100 − % cell survival) of BT474 cell line

SMILES	cytotoxicity at 0.41 µM [%]
CC(=O)Nc1ccc(S(=O)(=O)Nc2nnc(S(=O)(=O)NC(=O)c3ccccc3)s2)cc1 [Compound 6a]	29.8

Same assay, conditions: Homo sapiens, BT-474, 1.23 μM, 72 h, read-out: % cytotoxicity (100 − % cell survival) of BT474 cell line

SMILES	cytotoxicity at 1.23 µM [%]
CC(=O)Nc1ccc(S(=O)(=O)Nc2nnc(S(=O)(=O)NC(=O)c3ccccc3)s2)cc1 [Compound 6a]	30.4

Same assay, conditions: Homo sapiens, BT-474, 3.7 μM, 72 h, read-out: % cytotoxicity (100 − % cell survival) of BT474 cell line

SMILES	cytotoxicity at 3.7 µM [%]
CC(=O)Nc1ccc(S(=O)(=O)Nc2nnc(S(=O)(=O)NC(=O)c3ccccc3)s2)cc1 [Compound 6a]	30.9

Same assay, conditions: Homo sapiens, BT-474, 11.11 μM, 72 h, read-out: % cytotoxicity (100 − % cell survival) of BT474 cell line

SMILES	cytotoxicity at 11.11 µM [%]
CC(=O)Nc1ccc(S(=O)(=O)Nc2nnc(S(=O)(=O)NC(=O)c3ccccc3)s2)cc1 [Compound 6a]	31.3

Same assay, conditions: Homo sapiens, BT-474, 33.33 μM, 72 h, read-out: % cytotoxicity (100 − % cell survival) of BT474 cell line

SMILES	cytotoxicity at 33.33 µM [%]
CC(=O)Nc1ccc(S(=O)(=O)Nc2nnc(S(=O)(=O)NC(=O)c3ccccc3)s2)cc1 [Compound 6a]	32.1

Same assay, conditions: Homo sapiens, BT-474, 100 μM, 72 h, read-out: % cytotoxicity (100 − % cell survival) of BT474 cell line

SMILES	cytotoxicity at 100 µM [%]
CC(=O)Nc1ccc(S(=O)(=O)Nc2nnc(S(=O)(=O)NC(=O)c3ccccc3)s2)cc1 [Compound 6a]	32.7

Tested on: not listed separately
Experiment: In vitro cytotoxicity by MTT assay, NCI-H226
Type: cell-based
Settings: human, NCI-H226 lung cancer cells, 0.015 μM, read-out: % Cytotoxicity (100 − % cell survival) of NCI-H226 cell line
Protocol: as §1, §2

SMILES	cytotoxicity at 72 h, 0.015 µM [%]
CC(=O)Nc1ccc(S(=O)(=O)Nc2nnc(S(=O)(=O)NC(=O)c3ccccc3)s2)cc1 [Compound 6a]	31.6

Tested on: NCI-H226 (lung cancer cell line)
Experiment: In vitro cytotoxicity by MTT assay, NCI-H226
Type: cell-based
Settings: Homo sapiens, NCI-H226, 0.005 μM, 72 h, read-out: % Cytotoxicity (100 − % cell survival) of NCI-H226 cell line
Protocol: as §1, §2

SMILES	cytotoxicity at 0.005 µM [%]
CC(=O)Nc1ccc(S(=O)(=O)Nc2nnc(S(=O)(=O)NC(=O)c3ccccc3)s2)cc1 [Compound 6a]	30.5

Same assay, conditions: Homo sapiens, NCI-H226, 0.045 μM, 72 h, read-out: % Cytotoxicity (100 − % cell survival) of NCI-H226 cell line

SMILES	cytotoxicity at 0.045 µM [%]
CC(=O)Nc1ccc(S(=O)(=O)Nc2nnc(S(=O)(=O)NC(=O)c3ccccc3)s2)cc1 [Compound 6a]	32.2

Same assay, conditions: Homo sapiens, NCI-H226, 0.13 μM, 72 h, read-out: % Cytotoxicity (100 − % cell survival) of NCI-H226 cell line

SMILES	cytotoxicity at 0.13 µM [%]
CC(=O)Nc1ccc(S(=O)(=O)Nc2nnc(S(=O)(=O)NC(=O)c3ccccc3)s2)cc1 [Compound 6a]	32.9

Same assay, conditions: Homo sapiens, NCI-H226, 0.41 μM, 72 h, read-out: % Cytotoxicity (100 − % cell survival) of NCI-H226 cell line

SMILES	cytotoxicity at 0.41 µM [%]
CC(=O)Nc1ccc(S(=O)(=O)Nc2nnc(S(=O)(=O)NC(=O)c3ccccc3)s2)cc1 [Compound 6a]	33.6

Same assay, conditions: Homo sapiens, NCI-H226, 1.23 μM, 72 h, read-out: % Cytotoxicity (100 − % cell survival) of NCI-H226 cell line

SMILES	cytotoxicity at 1.23 µM [%]
CC(=O)Nc1ccc(S(=O)(=O)Nc2nnc(S(=O)(=O)NC(=O)c3ccccc3)s2)cc1 [Compound 6a]	35.6

Same assay, conditions: Homo sapiens, NCI-H226, 3.7 μM, 72 h, read-out: % Cytotoxicity (100 − % cell survival) of NCI-H226 cell line

SMILES	cytotoxicity at 3.7 µM [%]
CC(=O)Nc1ccc(S(=O)(=O)Nc2nnc(S(=O)(=O)NC(=O)c3ccccc3)s2)cc1 [Compound 6a]	36

Same assay, conditions: Homo sapiens, NCI-H226, 11.11 μM, 72 h, read-out: % Cytotoxicity (100 − % cell survival) of NCI-H226 cell line

SMILES	cytotoxicity at 11.11 µM [%]
CC(=O)Nc1ccc(S(=O)(=O)Nc2nnc(S(=O)(=O)NC(=O)c3ccccc3)s2)cc1 [Compound 6a]	38.2

Same assay, conditions: Homo sapiens, NCI-H226, 33.33 μM, 72 h, read-out: % Cytotoxicity (100 − % cell survival) of NCI-H226 cell line

SMILES	cytotoxicity at 33.33 µM [%]
CC(=O)Nc1ccc(S(=O)(=O)Nc2nnc(S(=O)(=O)NC(=O)c3ccccc3)s2)cc1 [Compound 6a]	38.9

Same assay, conditions: Homo sapiens, NCI-H226, 100 μM, 72 h, read-out: % Cytotoxicity (100 − % cell survival) of NCI-H226 cell line

SMILES	cytotoxicity at 100 µM [%]
CC(=O)Nc1ccc(S(=O)(=O)Nc2nnc(S(=O)(=O)NC(=O)c3ccccc3)s2)cc1 [Compound 6a]	40.9
